Measured values published in article PMC6062912, “The Evolutionary Conserved γ-Core Motif Influences the Anti-Candida Activity of the Penicillium chrysogenum Antifungal Protein PAF” (Frontiers in Microbiology, 2018).
Read-outs that look alike come from different tables or passages of the source. Residues, ends and D or L forms follow the SMILES beside them.

Key:
Type in all cases: cell-based, Candida albicans
C. albicans [1] = settings: 10 min exposure, mean ± SD, untreated control 1.8 ± 1.2%
Procedure: To analyze changes in cell size and to assess kinetics of cell death of C. albicans upon antifungal treatment flow cytometry was applied. For both experiments, 10^4 cells mL^-1 was incubated in 0.05× PDB with the desired AMP concentration for different time points. The incubation was performed in 1.5 mL reaction tubes at 30°C under continuous shaking at 800 rpm in a Thermomixer Comfort (Eppendorf). After incubation, the cells were centrifuged at 4°C with 3,000 ×g for 3 min. For cell size determination, the supernatant was removed and the cells were resuspended and fixed in PBS containing 3.7% (v/v) formaldehyde before changes in cell size were measured by plotting SSC against FSC. C. albicans that were incubated at 95°C for 120 min served as controls. Microscopic control-images were taken with a fluorescence microscope (Axioplan, Zeiss), equipped with a camera (Axiocam 503 mono, Zeiss) and excitation/emission filters (365/420 nm for blue fluorescence and 546/590 or 565/620 nm for red fluorescence, Zeiss). Image acquisition was performed with ZEN 2 microscope software (Zeiss, blue edition) and the cell area was measured with ImageJ 1.52d software ([Schindelin et al., 2012]).
For dead-cell staining, prior to fixation, the cells were incubated in the dark for 30 min at 4°C with 100 μL PBS containing 0.1 μL LIVE/DEAD^TM Fixable Far Red Dead Cell Stain (Thermo Fisher Scientific). The cells were then washed once in PBS and fixed in PBS containing 3.7% formaldehyde. Ethanol-inactivated dead C. albicans served as a positive staining control. The samples were then analyzed by FACS (FACSVerse Flow Cytometer, BD Biosciences), equipped with BD FACSuite software (v1.0.6.5230, BD Biosciences). Dead cells were detected at Excitation/Emission wavelength of 650/665 nm. Stained, live, and dead Candida cells were used as controls to discriminate populations and to set the gates.
To elucidate the AMPs candidacidal activities at an early stage and to compare their time and dose-dependent cell killing in more detail, fluorescence activated cell sorting (FACS) analysis with dead-cell staining was applied. To this end, C. albicans was exposed to 1× and 2× MIC of the respective AMPs for 10 min, stained with the dead-cell marker, and fixed with formaldehyde. With FACS analyses, 1.8 ± 1.2% dead cells were detected in the untreated control (Figure 3).

C. albicans [2] = experiment: ROS production, DCFH-DA fluorometric assay; settings: for ROS signal higher compared to Pγ: 60 min
Procedure: For the detection of ROS generation in C. albicans a dichloro-dihydro-fluorescein diacetate (DCFH-DA, Sigma-Aldrich)-based fluorometric assay was applied, adapted from [Han et al. (2016)]. Cells from an overnight culture of C. albicans, grown on YPD agar, were suspended in 0.05× PDB (Sigma-Aldrich) and the cell number was adjusted to 10^7 cells mL^-1. DCFH-DA stock solution (100 mM in DMSO) was added to the cell suspension to give a final concentration of 100 μM. This cell suspension was pre-incubated for 30 min at 30°C protected from light. Serial dilutions of the test compounds were prepared in 0.05× PDB (Sigma-Aldrich) in 96-well microtiter plates (Nunclon Delta, Thermo Fisher Scientific) in a volume of 100 μL per well. H2O2 served as a positive control for ROS induction. After pre-incubation, the DCFH-DA loaded cells were added to the test compounds (100 μL per well) to give a final volume of 200 μL in each well and the 96-well plate was placed in a multi-mode microplate reader (FLUOstar Omega, BMG Labtech), set to 30°C incubation temperature. The fluorescence signal was recorded every 5 min over a time course of 4 h at excitation and emission wavelengths of 485 and 520 nm, respectively. Measurements were prepared in duplicates and assays were performed at least three times.
Since ROS production is an early marker for programmed cell death, we were also interested whether the investigated AMPs induce ROS in C. albicans. Therefore, C. albicans cells were loaded with DCFH-DA, which is converted intracellularly to the highly fluorescent DCF when oxidized in the presence of ROS ([Chen et al., 2010]). During exposure of the cells to 0–20 μM AMPs the DCF signal intensities were recorded in RFU every 5 min over a time-course of 4 h. The background RFU of 6,757 ± 117 was detected in C. albicans cells that were not exposed to AMPs, but loaded with DCFH-DA, diluted in 0.05× PDB (0.1% DMSO final concentration). The RFU value remained constant over the time of measurement. For all AMPs, we detected a time- and dose-dependent increase of ROS (Supplementary Figure S9) and ROS production was prevented by the addition of 1 mM of the antioxidant ascorbic acid to the highest concentration (20 μM) of each AMP (Supplementary Figure S10).

C. albicans [3] = settings: 2 h
Procedure: Fungistatic or fungicidal activities were determined by incubating C. albicans (10^4 cells mL^-1) in 0.05× PDB with proteins and peptides at 1× MIC and 2× MIC of at 30°C under continuous shaking (800 rpm) in a Thermomixer Comfort (Eppendorf). At defined time points, aliquots were taken and appropriate dilutions were plated on YPD agar in duplicates to promote growth of viable cells. Agar plates were incubated at 37°C for 24 h to count colony forming units (cfu) ([Huber et al., 2018]).
The determination of the MIC concentration is a well-established, reliable method to elucidate the growth reducing effect of an antifungal compound. […] To gain deeper insight into the antifungal mechanism of the generated protein and peptide variants, we compared them first for their fungicidal potential. In liquid culture C. albicans was exposed to 1× MIC and 2× MIC concentrations of each protein and peptide. After certain time points aliquots were taken and appropriate dilutions were spread on agar plates to allow colony formation of viable cells. The cfu were counted and compared to the untreated control, which was set to be 100%. […] The candidacidal effects were aggravated with higher protein concentrations.

Row | SMILES | dead cells (cells killed), FACS dead-cell staining (C. albicans [1]; 1× MIC) [%] | dead cells (cells killed), FACS dead-cell staining (C. albicans [1]; 2× MIC) [%] | ROS signal above the background (C. albicans [2]; 1.3 μM, 4 h) [%] | fluorescence signal above the background (ROS) (C. albicans [2]; 20 μM, 30 min) [%] | ROS signal higher compared to Pγ (C. albicans [2]; 20 μM) | ROS signal above the level induced by Pγ (C. albicans [2]; 20 μM, 4 h) [%] | Candida cells killed (cfu vs untreated control) (C. albicans [3]; 1) [%] | Candida cells killed (cfu vs untreated control) (C. albicans [3]; 2) [%] | Candida cells killed (cfu vs untreated control) (C. albicans [3]; 1× MIC, 0.05× PDB, 30°C, mean ± SD)
1 | CC(=O)N[C@@H](CCCCN)C(=O)N[C@@H](Cc1ccc(O)cc1)C(=O)N[C@H](C(=O)NCC(=O)N[C@@H](CCCCN)C(=O)N[C@@H](CS)C(=O)N[C@@H](CCCCN)C(=O)N[C@H](C(=O)N[C@@H](CCCCN)C(=O)N[C@@H](CCCCN)C(=O)N[C@@H](CC(N)=O)C(=O)N[C@@H](CCCCN)C(=O)N[C@@H](CS)C(=O)N[C@@H](CCCCN)C(N)=O)[C@@H](C)O)[C@@H](C)O [Pγ^opt] (Ac-KYTGKCKTKKNKCK-NH2) | 11.7 ± 0.3 | 27.4 ± 1.3 | 36 | 31 | +85% | 446 | 29 ± 10 | 88 ± 8 | –
2 | CC(=O)N[C@@H](CCCCN)C(=O)N[C@@H](Cc1ccc(O)cc1)C(=O)N[C@H](C(=O)NCC(=O)N[C@@H](CCCCN)C(=O)N[C@@H](CS)C(=O)N[C@@H](Cc1ccc(O)cc1)C(=O)N[C@@H](CCCCN)C(=O)N[C@@H](CCCCN)C(=O)N[C@@H](CCCCN)C(=O)N[C@@H](CC(N)=O)C(=O)N[C@@H](CCC(=O)O)C(=O)N[C@@H](CS)C(=O)N[C@@H](CCCCN)C(N)=O)[C@@H](C)O [Pγ^var] (Ac-KYTGKCYKKKNECK-NH2) | 13.2 ± 3.2 | 27.1 ± 5.6 | – | – | +50% | 146 | – | 50 ± 28 | no killing effects
